Results on 1 compound are retold here after patent US20040002117A1 (priority 1998, published 2004).

Molecules are shown by their SMILES.

The test system of test [1] is nuclear import of NFAT in C1.7W2 T cells. Put plainly: NFAT1 immune staining assay, nuclear import in C1.7W2 T cells. It is filed as cell-based, murine. To be noted: INCA6 20 μM or 40 μM; CsA/FK506 1 μM/100 nM; 1 μM ionomycin 15 min. How it is done:
For an immune staining assay, C1.7W2 T cells growing on coverslips in Dulbecco's modified Eagle medium, supplemented with 10% fetal calf serum, 10 mM HEPES, and 2 mM glutamine, at 37 C. were pretreated with medium alone, with INCA6 (20 μM or 40 μM), or with CsA/FK506 (1 μM/100 nM) for 10 min, then stimulated for an additional 15 min with 1 μM ionomycin, in medium alone or in the continued presence of inhibitor as appropriate. Medium was removed, and the cells were fixed, permeabilized, and stained using the anti-67.1 antiserum against NFAT1 (A Ho et al (1994) J Biol Chem 269, 28181-28186) and a fluorescent second antibody.

Test [2] relates to NFAT dephosphorylation by calcineurin in C1.7W2 T cells. Put plainly: ionomycin-induced NFAT dephosphorylation in C1.7W2 T cells, Western blot. As to conditions: 1 μM ionomycin 15 min. It is filed as cell-based, murine. How it is done: For the dephosphorylation assay, C1.7W2 T cells were pretreated in Dulbecco's modified Eagle medium, supplemented with 10% fetal calf serum, 10 mM HEPES, and 2 mM glutamine, at 37 C. with INCA6 (5-40 μM) for 10 min, then stimulated for an additional 15 min with 1 μM ionomycin in the continued presence of inhibitor. Control incubations omitted INCA6, ionomycin, or both. DMSO was present at equal concentrations in all incubations. Cells were collected by centrifugation and lysed in Laemmli sample buffer. Samples were analyzed by SDS-polyacrylamide gel electrophoresis according to Laemmli (U K Laemmli (1970) Nature 227, 680-685) using a 6% separating gel, transferred to nitrocellulose membrane, and probed with an antiserum to NFAT1.
For orientation: In western blotting, separated proteins are transferred to a membrane and probed.

For test [3], the target named is T1, recombinant human calcineurin catalytic domain, calcineurin(2-347) (Homo sapiens, UniProt Q08209, L343A/M347D/Y341S).
T1 construct: GST (N, cleaved yes); made in house; host or cells: E. coli strain DH5α
The experiment in a line: fluorescence polarization competition assay, displacement of OG-VIVIT from calcineurin. In kind it is binding. How it is done:
Samples were analyzed as described in the preceding paragraph, and the resulting polarization data were plotted against the concentration of unlabelled VIVIT peptide, as shown in FIG. 8B.
The library stocks were dissolved at a nominal concentration of 10 mM in DMSO, and formatted for convenient robotic transfer on 384-well plates at the Institute of Chemistry and Cell Biology, Harvard Medical School. To initiate the competition assay, 40 nl volumes were pin-transferred from each well of a library stock plate to the corresponding wells of an assay plate, utilizing a robotic device. After a minimum 10 min incubation at room temperature to allow the binding to reach equilibrium, fluorescence polarization data were collected employing an Analyst plate reader (Molecular Devices).
Stocks of candidate inhibitor compounds and their structural analogues were purchased from ChemBridge or Asinex. The structure and purity of individual compounds were verified by ^1H NMR, mass spectrometry, or thin-layer chromatography. […] INCA1, INCA2, and INCA6 can be represented generally as follows: […]
(In general: Polarisation of emitted light reports the rotation of a fluorescent probe.)

Test [4] relates to cytokine mRNAs in C1.7W2 T cells. The experiment in a line: RNase protection assay of cytokine mRNAs in C1.7W2 T cells stimulated with PMA and ionomycin. It is filed as cell-based, murine. On the procedure:
The effects of INCA6 on transcription were examined in the case of several cytokine mRNAs that are known targets of calcineurin-NFAT signalling. C1.7W2 T cells were preincubated for 10 min. in medium alone, in medium containing INCA6, or in medium containing CsA and FK506, then stimulated under conditions that normally initiate signalling through the calcium-calmodulin-calcineurin-NFAT pathway. Cells in control samples that had not been pretreated with inhibitor were left unstimulated, or were stimulated for 45 min with 20 nM PMA alone, or with 20 nM PMA and 1 μM ionomycin. Cells in parallel samples that had been pretreated for 10 min with inhibitor were then further incubated for 45 min without stimulation or with PMA and ionomycin, in the continued presence of inhibitor. At the end of the incubation, cells were harvested and total cellular RNA was extracted using Ultraspec RNA-binding resin (Biotecx Laboratories). Levels of cytokine mRNAs were analyzed by RNase protection assays performed with RiboQuant multiprobe kits (Pharmingen) following the instructions of the manufacturer. Briefly, for each sample 10 μg of target RNA was hybridized overnight to a ^32P-labelled RNA probe that had been synthesized in vitro from a template set representing multiple murine cytokine mRNAs, and then the unhybridized probe and other single-stranded RNAs were digested with RNases. The protected RNAs were purified, and probes for the individual cytokine mRNAs were resolved on a denaturing 6% polyacrylamide gel. Transcript levels were quantified by autoradiography and by use of a phosphorimager (Molecular Dynamics). Probes for the individual cytokine transcripts were identified by the length of the respective protected fragments. The results are presented in FIGS. 14A to 14C, which are pictures of RNA gel autoradiograms. Data were corrected for minor variations in RNA loading by normalizing the data for each sample to the intensity of the signal for the housekeeping transcripts L32 and GAPDH (see lower panels of FIGS. 14A, 14B, and 14C).

Test [5] addresses calcineurin (Homo sapiens, UniProt Q08209, L343A/M347D/Y341S). The experiment in a line: 1H NMR titration spectroscopy binding experiments. As to conditions: 10 μM compound, 20 μM calcineurin, 25° C., buffered D2O. How it is done: T2-filtered ^1H NMR spectra were obtained on a Bruker Avance 600 instrument with CryoPhobe using low-power presaturation of residual water. Preacquisition delays included up to five spin echos to suppress fast-relaxing broad protein resonances and were times to yield in-phase signals for J-coupled spins. Chemical shifts were referenced to internal standard 5 μM 2,2-dimethylsilapentane-5-sulfonic acid (DSS).

In test [6] the test system is PMA-MAP kinase signalling pathway in C1.7W2 T cells. The experiment in a line: phosphorylation of p44/p42 MAP kinase in PMA-stimulated C1.7W2 T cells. It is filed as cell-based, murine. As to conditions: INCA6 pretreatment; 20 nM PMA 15 min. How it is done: Dephosphorylation of NFAT is evident in the shift of the stained NFAT band the sample from cells that were stimulated with ionomycin in the absence of inhibitor (FIG. 12A, lane 2). […] Activation of the latter pathway was monitored by examining phosphorylation of p44/p42 MAP kinase. For this assay the cells were pretreated and incubated as for the NFAT dephosphorylation assay, except that stimulation was for 15 min with 20 nM PMA. Cells were collected by centrifugation, lysed in Laemmli sample buffer, and analyzed by Western blotting with an anti-phospho-p44/p42 MAP kinase antibody (Cell Signaling Technology).

T1 sequence (Q08209 2-347 Y341S/L343A/M347D): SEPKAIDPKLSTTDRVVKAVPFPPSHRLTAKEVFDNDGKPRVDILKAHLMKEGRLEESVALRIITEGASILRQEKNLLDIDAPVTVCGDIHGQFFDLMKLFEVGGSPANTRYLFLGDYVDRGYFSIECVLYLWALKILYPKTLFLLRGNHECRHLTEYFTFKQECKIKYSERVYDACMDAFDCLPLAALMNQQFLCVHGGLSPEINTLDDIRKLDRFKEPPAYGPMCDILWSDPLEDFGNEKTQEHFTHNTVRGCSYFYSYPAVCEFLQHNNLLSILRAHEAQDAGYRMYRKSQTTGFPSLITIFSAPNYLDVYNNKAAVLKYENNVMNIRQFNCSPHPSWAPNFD
calcineurin, sequence (Q08209 2-347 Y341S/L343A/M347D limits assumed): as the sequence (Q08209 2-347 Y341S/L343A/M347D) above

In the case of `O=C1C=CC(=O)C2=C1C1c3ccccc3C2c2ccccc21` [INCA6], in test [1], the “localization of NFAT immune staining in ionomycin-stimulated cells” value is “localized to the cytoplasm”. The figures for the “blockade of NFAT dephosphorylation in cells” value in test [2] (10 μM INCA6), in test [2] (20 μM INCA6) and in test [2] (40 μM INCA6) were “partial”, “nearly complete” and “total”, respectively. In addition, the Ki in test [3] was 0.8 to 5 µM. In test [3] (at high concentrations, 1 μM calcineurin, 60 nM OG-VIVIT), the “displacement of OG-VIVIT from calcineurin” value is given as “complete”. In test [3] (calcineurin-VIVIT peptide interaction, read-out: Estimated IC50), the half-maximal inhibitory concentration (IC50) is 17 µM. Moreover, the “induction of GM-CSF mRNA” value in test [4] (20 μM INCA6, 20 nM PMA and 1 μM ionomycin 45 min) is recorded as “partially prevented”; in test [4] (40 μM INCA6, CsA/FK506 1 μM/100 nM, PMA and ionomycin 45 min) it was “fully blocked”. Further, the “induction of lymphotactin (Ltn), MIP1β, and MIP-1α mRNAs” value is recorded as “partially blocked” in test [4] (20 μM INCA6, PMA and ionomycin); “fully blocked” in test [4] (40 μM INCA6, CsA/FK506, PMA and ionomycin). In test [4] (20 μM or 40 μM INCA6, CsA/FK506, PMA and ionomycin), the “induction of TNFα mRNA” value is on record as “inhibited”. The “induction of IFNγ mRNA” value in test [4] (INCA6, CsA/FK506, PMA and ionomycin) was “inhibited”. Further, in test [4] (not downstream targets of NFAT), the “levels of TNFβ, RANTES, and IP-10 mRNAs” value is on record as “unaffected”. The “basal level of GM-CSF mRNA” value in test [4] (unstimulated cells) is recorded as “not affected”. Moreover, the “binding to calcineurin in the absence of VIVIT peptide” value in test [5] was “direct molecular interaction”. Moreover, the “activation of the PMA-MAP kinase signalling pathway (phosphorylation of p44/p42 MAP kinase)” value in test [6] was “not blocked”.

What is called Ki is the dissociation constant of the complex between target and ligand, obtained from inhibition or displacement. As a reminder, the IC50 is the concentration at which inhibition is half-maximal.
